US20260068885A1, “HERBICIDAL COMPOSITIONS” (BAYER AKTIENGESELLSCHAFT, priority 2022, published 2026)

Experiments:
Assay in all cases: Post-emergence herbicidal action against harmful plants (greenhouse)
Type in all cases: in vivo
[1] = tested on: Abutilon theophrasti (ABUTH)
Description: (§1) Seeds of monocotyledonous and dicotyledonous weed and crop plants are laid out in sandy loam soil in wood-fibre pots, covered with soil and cultivated in a greenhouse under good growth conditions. 2 to 3 weeks after sowing, the test plants are treated at the one-leaf stage. The compounds of the invention, formulated in the form of wettable powders (WP) or as emulsion concentrates (EC), are then sprayed onto the green parts of the plants in the form of an aqueous suspension or emulsion at a water application rate equivalent to 600 to 800 l/ha, with addition of 0.2% wetting agent. After the test plants have been […], the action of the preparations is assessed visually in comparison to untreated controls (herbicidal action in percent (%): 100% activity=the plants have died, 0% activity=like control plants). […] The tables below illustrate, in an illustrative manner, the post-emergence herbicidal action of the compounds of the invention, the herbicidal activity being stated in percent.
(§2) In the tables that follow, the abbreviations mean the following: • E: means the synergism value to be expected according to the Colby formula. • Δ SYN: means the difference between the actual and expected synergism value. • DAT: means days after treatment.

Setaria viridis (SETVI) = tested on: Setaria viridis (SETVI)
Description: as §1, §2

Solanum nigrum (SOLNI) = tested on: Solanum nigrum (SOLNI)
Description: as §1, §2

[2] = tested on: Euphorbia heterophylla (EPHHL); conditions: EPHHL 21 DAT
Description: (§3) Seeds of monocotyledonous and dicotyledonous weed and crop plants are laid out in sandy loam soil in wood-fibre pots, covered with soil and cultivated in a greenhouse under good growth conditions. 2 to 3 weeks after sowing, the test plants are treated at the one-leaf stage. The compounds of the invention, formulated in the form of wettable powders (WP) or as emulsion concentrates (EC), are then sprayed onto the green parts of the plants in the form of an aqueous suspension or emulsion at a water application rate equivalent to 600 to 800 l/ha, with addition of 0.2% wetting agent. After the test plants have been left to stand in the greenhouse under optimal growth conditions for about 3 weeks, the action of the preparations is assessed visually in comparison to untreated controls (herbicidal action in percent (%): 100% activity=the plants have died, 0% activity=like control plants). […] The tables below illustrate, in an illustrative manner, the post-emergence herbicidal action of the compounds of the invention, the herbicidal activity being stated in percent.
as §2

[3] = tested on: Sorghum halepense (SORHA)
Description: as §3, §2

[4] = tested on: Brachiaria platyphylla (BRAPP)
Description: as §3, §2

Emex australis (EMEAU) = tested on: Emex australis (EMEAU)
Description: as §3, §2

[5] = tested on: Pharbitis purpurea (PHBPU)
[6] = tested on: Xanthium strumarium (XANST); conditions: application rate 1 g a.i./ha
Cyperus iria (CYPIR) = tested on: Cyperus iria (CYPIR)
Description: as §1, §2

[7] = tested on: Polygonum convolvulus (POLCO)
[8] = tested on: Erigeron bonariensis (ERIBO)
Description: as §1, §2

[9] = application rate 0.25 g a.i./ha

SMILES: C#CCN1C(=O)C(F)(F)Oc2cc(F)c(-n3c(=O)n(C)c(=S)n(C)c3=O)cc21 [trifludimoxazin]
- Herbicidal efficacy ([1]; ABUTH 10 DAT, 0.25 g a.i./ha): 88%
- Herbicidal efficacy ([1]; ABUTH 10 DAT, 1 g a.i./ha): 85%
- Herbicidal efficacy ([1]; ABUTH 21 DAT, 0.25 g a.i./ha): 80%
- Herbicidal efficacy ([1]; ABUTH 21 DAT, 1 g a.i./ha): 75%
- Herbicidal efficacy (Setaria viridis (SETVI); SETVI 10 DAT, 0.25 g a.i./ha): 85%
- Herbicidal efficacy (Setaria viridis (SETVI); SETVI 21 DAT, 0.25 g a.i./ha): 70%
- Herbicidal efficacy [%] against SOLNI 10 DAT (Solanum nigrum (SOLNI); application rate 1 g a.i./ha): 88%
- Herbicidal efficacy [%] against SOLNI 21 DAT (Solanum nigrum (SOLNI); application rate 1 g a.i./ha): 60%
- Herbicidal efficacy ([2]; 0.25 g a.i./ha): 88%
- Herbicidal efficacy [%] against SORHA 10 DAT [3, 9]: 70%
- Herbicidal efficacy [%] against SORHA 21 DAT [3, 9]: 40%
- Herbicidal efficacy [%] against SORHA 10 DAT ([3]; application rate 1 g a.i./ha): 85%
- Herbicidal efficacy [%] against SORHA 21 DAT ([3]; application rate 1 g a.i./ha): 70%
- Herbicidal efficacy ([4]; BRAPP 10 DAT, 1 g a.i./ha): 80%
- Herbicidal efficacy (Emex australis (EMEAU); EMEAU 21 DAT, 1 g a.i./ha): 85%
- Herbicidal efficacy ([5]; PHBPU 21 DAT, 1 g a.i./ha): 80%

SMILES: CCOC(=O)C1(C)CC(c2cc(-n3c(=O)cc(C(F)(F)F)n(C)c3=O)c(F)cc2Cl)=NO1 (stereo not shown) [P4, ethyl 3-{2-chloro-4-fluoro-5-[3-methyl-2,6-dioxo-4-(trifluoromethyl)-3,6-dihydropyrimidin-1(2H)-yl]phenyl}-5-methyl-4,5-dihydro-1,2-oxazole-5-carboxylate]
- Herbicidal efficacy (Setaria viridis (SETVI); SETVI 10 DAT, 1 g a.i./ha): 88%
- Herbicidal efficacy (Setaria viridis (SETVI); SETVI 21 DAT, 1 g a.i./ha): 80%
- Herbicidal efficacy ([2]; 1 g a.i./ha): 80%
- Herbicidal efficacy (Emex australis (EMEAU); EMEAU 21 DAT, 1 g a.i./ha): 70%

SMILES: COC(=O)CCNC(=O)C(C)Sc1cc(-n2c(=O)cc(C(F)(F)F)n(C)c2=O)c(F)cc1Cl (stereo not shown) [tiafenacil]
- Herbicidal efficacy [%] against XANST 10 DAT ([6]; 10 DAT): 88%
- Herbicidal efficacy [%] against XANST 21 DAT ([6]; 21 DAT): 85%
- Herbicidal efficacy [%] against SOLNI 10 DAT (Solanum nigrum (SOLNI); application rate 1 g a.i./ha): 88%
- Herbicidal efficacy [%] against SOLNI 21 DAT (Solanum nigrum (SOLNI); application rate 1 g a.i./ha): 60%
- Herbicidal efficacy (Cyperus iria (CYPIR); CYPIR 21 DAT, 0.25 g a.i./ha): 88%
- Herbicidal efficacy [%] against SORHA 21 DAT ([3]; application rate 1 g a.i./ha): 85%
- Herbicidal efficacy ([4]; BRAPP 21 DAT, 1 g a.i./ha): 40%

SMILES: COc1c(Cl)ccc(-c2nc(C(=O)O)c(Cl)c(N)c2F)c1F [florpyrauxifen]
- Herbicidal efficacy ([7]; POLCO 10 DAT, 1.2 g a.i./ha): 90%
- Herbicidal efficacy ([7]; POLCO 21 DAT, 1.2 g a.i./ha): 90%
- Herbicidal efficacy ([1]; ABUTH 21 DAT, 0.3 g a.i./ha): 90%
- Herbicidal efficacy (Setaria viridis (SETVI); SETVI 10 DAT, 0.3 g a.i./ha): 30%
- Herbicidal efficacy (Setaria viridis (SETVI); SETVI 21 DAT, 0.3 g a.i./ha): 40%
- Herbicidal efficacy ([2]; 0.3 g a.i./ha): 90%
- Herbicidal efficacy [%] against SORHA 10 DAT ([3]; application rate 0.3 g a.i./ha): 10%
- Herbicidal efficacy ([4]; BRAPP 10 DAT, 0.3 g a.i./ha): 75%
- Herbicidal efficacy ([4]; BRAPP 21 DAT, 0.3 g a.i./ha): 60%
- Herbicidal efficacy (Emex australis (EMEAU); EMEAU 21 DAT, 1.2 g a.i./ha): 75%

SMILES: COc1ccc(-n2nc(C)cc(C(=O)C3C(=O)CCCC3=O)c2=O)cc1OC [dioxopyritrione]
- Herbicidal efficacy ([7]; POLCO 10 DAT, 2.5 g a.i./ha): 80%
- Herbicidal efficacy ([7]; POLCO 10 DAT, 10 g a.i./ha): 80%
- Herbicidal efficacy ([7]; POLCO 21 DAT, 10 g a.i./ha): 70%
- Herbicidal efficacy ([1]; ABUTH 21 DAT, 10 g a.i./ha): 80%
- Herbicidal efficacy (Setaria viridis (SETVI); SETVI 10 DAT, 2.5 g a.i./ha): 10%
- Herbicidal efficacy (Setaria viridis (SETVI); SETVI 10 DAT, 10 g a.i./ha): 20%
- Herbicidal efficacy (Setaria viridis (SETVI); SETVI 21 DAT, 2.5 g a.i./ha): 10%
- Herbicidal efficacy (Setaria viridis (SETVI); SETVI 21 DAT, 10 g a.i./ha): 20%
- Herbicidal efficacy ([8]; ERIBO 10 DAT, 10 g a.i./ha): 90%
- Herbicidal efficacy ([8]; ERIBO 21 DAT, 10 g a.i./ha): 88%
- Herbicidal efficacy [%] against SORHA 10 DAT ([3]; application rate 2.5 g a.i./ha): 20%
- Herbicidal efficacy [%] against SORHA 21 DAT ([3]; application rate 2.5 g a.i./ha): 0%
- Herbicidal efficacy [%] against SORHA 10 DAT ([3]; application rate 10 g a.i./ha): 30%
- Herbicidal efficacy [%] against SORHA 21 DAT ([3]; application rate 10 g a.i./ha): 10%
- Herbicidal efficacy ([4]; BRAPP 10 DAT, 2.5 g a.i./ha): 40%
- Herbicidal efficacy ([4]; BRAPP 10 DAT, 10 g a.i./ha): 70%
- Herbicidal efficacy ([4]; BRAPP 21 DAT, 2.5 g a.i./ha): 20%
- Herbicidal efficacy ([4]; BRAPP 21 DAT, 10 g a.i./ha): 30%
- Herbicidal efficacy ([5]; PHBPU 21 DAT, 2.5 g a.i./ha): 20%

SMILES: CN1C[C@H](c2cccc(C(F)(F)F)c2)[C@@H](C(=O)Nc2ccccc2F)C1=O [tetflupyrolimet]
- Herbicidal efficacy ([7]; POLCO 10 DAT, 400 g a.i./ha): 10%
- Herbicidal efficacy ([7]; POLCO 21 DAT, 100 g a.i./ha): 0%
- Herbicidal efficacy ([7]; POLCO 21 DAT, 400 g a.i./ha): 0%
- Herbicidal efficacy ([1]; ABUTH 10 DAT, 400 g a.i./ha): 0%
- Herbicidal efficacy ([1]; ABUTH 21 DAT, 400 g a.i./ha): 0%
- Herbicidal efficacy [%] against SOLNI 10 DAT (Solanum nigrum (SOLNI); application rate 400 g a.i./ha): 10%
- Herbicidal efficacy [%] against SOLNI 21 DAT (Solanum nigrum (SOLNI); application rate 400 g a.i./ha): 0%
- Herbicidal efficacy (Cyperus iria (CYPIR); CYPIR 10 DAT, 400 g a.i./ha): 0%
- Herbicidal efficacy (Cyperus iria (CYPIR); CYPIR 21 DAT, 400 g a.i./ha): 0%
- Herbicidal efficacy [%] against SORHA 10 DAT ([3]; application rate 100 g a.i./ha): 10%
- Herbicidal efficacy [%] against SORHA 21 DAT ([3]; application rate 100 g a.i./ha): 0%
- Herbicidal efficacy ([4]; BRAPP 21 DAT, 400 g a.i./ha): 70%

SMILES: Nc1c(F)c(-c2ccc3cc[nH]c3c2F)nc(C(=O)O)c1Cl [P3, 4-amino-3-chloro-5-fluoro-6-(7-fluoro-1H-indol-6-yl)pyridine-2-carboxylic acid]
- Herbicidal efficacy ([1]; ABUTH 21 DAT, 0.3 g a.i./ha): 60%
- Herbicidal efficacy ([1]; ABUTH 21 DAT, 1.2 g a.i./ha): 60%
- Herbicidal efficacy (Setaria viridis (SETVI); SETVI 21 DAT, 0.3 g a.i./ha): 70%
- Herbicidal efficacy (Solanum nigrum (SOLNI); SOLNI 21 DAT, 1.2 g a.i./ha): 85%
- Herbicidal efficacy [%] against SORHA 10 DAT ([3]; application rate 0.3 g a.i./ha): 30%
- Herbicidal efficacy [%] against SORHA 21 DAT ([3]; application rate 0.3 g a.i./ha): 10%
- Herbicidal efficacy [%] against SORHA 10 DAT ([3]; application rate 1.2 g a.i./ha): 60%
- Herbicidal efficacy [%] against SORHA 21 DAT ([3]; application rate 1.2 g a.i./ha): 30%
- Herbicidal efficacy ([4]; BRAPP 10 DAT, 0.3 g a.i./ha): 70%
- Herbicidal efficacy ([4]; BRAPP 21 DAT, 0.3 g a.i./ha): 60%
- Herbicidal efficacy ([4]; BRAPP 21 DAT, 1.2 g a.i./ha): 75%
- Herbicidal efficacy (Emex australis (EMEAU); EMEAU 21 DAT, 1.2 g a.i./ha): 70%

SMILES: FC(F)c1cc(-c2c(Cl)cccc2Oc2ncc(Cl)cn2)on1 [rimisoxafen]
- Herbicidal efficacy ([7]; POLCO 21 DAT, 20 g a.i./ha): 60%
- Herbicidal efficacy ([7]; POLCO 21 DAT, 80 g a.i./ha): 88%
- Herbicidal efficacy ([1]; ABUTH 10 DAT, 20 g a.i./ha): 88%
- Herbicidal efficacy ([1]; ABUTH 21 DAT, 20 g a.i./ha): 40%
- Herbicidal efficacy (Setaria viridis (SETVI); SETVI 21 DAT, 20 g a.i./ha): 30%
- Herbicidal efficacy [%] against SOLNI 10 DAT (Solanum nigrum (SOLNI); application rate 80 g a.i./ha): 88%
- Herbicidal efficacy [%] against SOLNI 21 DAT (Solanum nigrum (SOLNI); application rate 80 g a.i./ha): 80%
- Herbicidal efficacy ([8]; ERIBO 21 DAT, 20 g a.i./ha): 10%
- Herbicidal efficacy (Cyperus iria (CYPIR); CYPIR 21 DAT, 20 g a.i./ha): 88%
- Herbicidal efficacy [%] against SORHA 10 DAT ([3]; application rate 20 g a.i./ha): 10%
- Herbicidal efficacy [%] against SORHA 21 DAT ([3]; application rate 20 g a.i./ha): 10%
- Herbicidal efficacy ([4]; BRAPP 10 DAT, 20 g a.i./ha): 30%
- Herbicidal efficacy ([4]; BRAPP 21 DAT, 20 g a.i./ha): 20%
- Herbicidal efficacy (Emex australis (EMEAU); EMEAU 10 DAT, 80 g a.i./ha): 88%
- Herbicidal efficacy (Emex australis (EMEAU); EMEAU 21 DAT, 80 g a.i./ha): 80%
- Herbicidal efficacy ([5]; PHBPU 10 DAT, 20 g a.i./ha): 30%
- Herbicidal efficacy ([5]; PHBPU 21 DAT, 20 g a.i./ha): 20%
